# pEC50, pIC50: −log10 of the molar value.
# Columns and labels:
# [1] = target: T1, PPARγ (Mus musculus, UniProt P37238); experiment: PPARγ radioligand binding assay (SPA, GST-PPARγ-LBD fusion protein); design: PPARγ (aa 174 to 476); conditions: SPA beads
# T1 sequence (P37238 204-505): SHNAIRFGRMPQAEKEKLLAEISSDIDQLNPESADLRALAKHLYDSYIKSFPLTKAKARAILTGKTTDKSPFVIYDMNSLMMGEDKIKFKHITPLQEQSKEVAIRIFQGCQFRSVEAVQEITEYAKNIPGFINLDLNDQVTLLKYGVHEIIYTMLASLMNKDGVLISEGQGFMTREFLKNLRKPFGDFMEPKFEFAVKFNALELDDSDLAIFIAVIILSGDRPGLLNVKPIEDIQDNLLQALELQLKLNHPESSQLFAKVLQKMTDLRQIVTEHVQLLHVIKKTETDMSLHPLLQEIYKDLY
# Source text: (§1) Full-length cDNA clones for human PPARα and mouse PPARγ were obtained by RT-PCR from human adipose and mouse liver cRNA, respectively, cloned into plasmid vectors and verified by DNA sequencing. (With respect to cloning of PPARα cDNA, see Sher, T. et al. “cDNA doning, chromosomel mapping and functional characterization of the human peroxisome proliferator activated receptor”, Biochemistry 32(21) 5598-5604 (1993); with respect to cloning of PPARγ2 cDNA, see Tontonoy P., et al. “mPPAR gamma 2: tissue-specific regulator of an adipocyte enhancer”, Genes Dev. 8(10) 1224-34 (1994).) Bacterial and mammalian expression vectors were constructed to produce glutathione-s-transferase (GST) and Gal4 DNA binding domain proteins fused to the ligand binding domains (LBD) of PPARγ (aa 174 to 476) and PPARα (aa 167 to 469). To accomplish this, the portions of the cloned sequences encoding the LBDs were amplified from the full-length clones by PCR and then subcloned into the plasmid vectors. Final clones were verified by DNA sequence analysis.
# (§2) Induction, expression, and purification of GST-LBD fusion proteins were performed in E. coli strain BL21(pLysS) cells by standard methods (Ref: Current Protocols in Molecular Biology, Wiley Press, edited by Ausubel et al.).
# (§3) PPARγ receptor binding was assayed in TKE50 (50 mM Tris-HCl, pH 8, 50 mM KCl, 2 mM EDTA, 0.1 mg/ml fatty acid-free BSA and 10 mM DTT). For each 96 well reaction an 140 ng equivalent of GST-PPARγ-LBD fusion protein was bound to 10 ug SPA beads (PharmaciaArnersham) in a final volume of 50 ul by shaking. The resulting slurry was incubated for 1 h at RT and centrifuged for 2 min at 1300 g. The supernatant containing unbound protein was removed and the semidry pellet containing the recptor-coated beads was resolved in 50 ul of TKE. For radioligand binding e.g. 10000 dpm 2(S)-(2-benzoyl-phenylamino)-3-{4-[1,1-ditritio-2-(5-methyl-2-phenyl-oxazol-4-yl)-ethoxy]-phenyl}-propionic acid in 50 ul were added, the reaction incubated at RT for 1 h and scintillation proximity counting performed. All binding assays were performed in 96 well plates and the amount of bound ligand measured on a Packard TopCount using OptiPlates (Packard). Nonspecific binding was determined in the presence of 10^−4 M unlabelled compound. Dose response curves were done in triplicates within a range of concentration from 10^−10 M to 10^−4 M.
# [2] = target: T1, PPARγ; experiment: Luciferase transcriptional reporter gene assay, BHK21 cells transfected with PPARγ-LBD expression plasmid; assay type: cell-based; design: PPARγ (aa 174 to 476) and PPARα (aa 167 to 469); expressed in transfected cells; host or cells: BHK21 (ATCC CCL10); conditions: 24 hours incubation
# Source text: as §1
# (§4) Baby hamster kidney cells (BHK21 ATCC CCL10) were grown in DMEM medium containing 10% FBS at 37° C. in a 95%02:5%CO2 atmosphere. Cells were seeded in 6 well plates at a density of 10^5 Cells/well and then batch-transfected with either the pPA-PPARγ-LBD or pFA-PPARα-LBD expression plasmids plus a reporter plasmid and an expression plasmid encoding the secretable form of alkaline phosphatase (SEAP) as a normalization control. […] Six hours following transfection, the cells were harvested by trypsinization and seeded in 96 well plates at a density of 10^4 cells/well. After 24 hours to allow attachment of cells, the medium was removed and replaced with 100 ul of phenol red-free medium containing the test substances or control ligands (final DMSO concentration: 0.1%). Following incubation of the cells for 24 hours with substances, 50 ul of the supernatant was recovered and analyzed for SEAP activity (Roche Molecular Biochemicals). The remainder of the supernatant was discarded, 50 ul PBS was added per well followed by one volume of Luciferase Constant-Light Reagent (Roche Molecular Biochemicals) to lyse the cells and initiate the luciferase reaction. Luminescence for both SEAP and luciferase was measured in a Packard TopCount. Luciferase activity was normalized to the SEAP control and transcriptional activation in the presence of a test substance was expressed as fold-activation over cells incubated in the absence of the substance. EC50 values were calculated using the XLfit program (ID Business Solutions Ltd. UK).
# [3] = target: T2, PPARα (Homo sapiens, UniProt Q07869); experiment: Luciferase transcriptional reporter gene assay, BHK21 cells transfected with pFA-PPARα-LBD; assay type: cell-based; design: PPARα (aa 167 to 469); conditions: 24 hours incubation
# T2 sequence (Q07869 167-468 limits assumed): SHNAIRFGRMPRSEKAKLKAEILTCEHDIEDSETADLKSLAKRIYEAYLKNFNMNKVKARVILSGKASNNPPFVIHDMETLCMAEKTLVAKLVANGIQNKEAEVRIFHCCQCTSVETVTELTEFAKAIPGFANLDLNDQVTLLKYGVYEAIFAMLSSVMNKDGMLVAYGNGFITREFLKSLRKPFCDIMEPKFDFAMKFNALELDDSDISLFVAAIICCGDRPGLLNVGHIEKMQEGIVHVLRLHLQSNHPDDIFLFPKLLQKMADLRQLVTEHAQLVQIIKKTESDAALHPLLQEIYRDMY
# Experimental: (§5) Full-length cDNA clones for human PPARα and mouse PPARγ were obtained by RT-PCR from human adipose and mouse liver cRNA, respectively, cloned into plasmid vectors and verified by DNA sequencing. […] To accomplish this, the portions of the cloned sequences encoding the LBDs were amplified from the full-length clones by PCR and then subcloned into the plasmid vectors. Final clones were verified by DNA sequence analysis.
# as §4
# [4] = target: T2, PPARα; experiment: PPARα radioligand binding assay (SPA, GST-PPARα-LBD fusion protein); design: PPARγ (aa 174 to 476) and PPARα (aa 167 to 469); made in house; host or cells: E. coli BL21(pLysS); conditions: SPA beads
# Source text: as §5, §2
# as §3, with “PPARα receptor” for “PPARγ receptor”, “reaction a” for “reaction an”, “of GST-PPARα-LBD” for “of GST-PPARγ-LBD”, “beads (PharmaciaAmersham)” for “beads (PharmaciaArnersham)”, “dpm of” for “dpm”, “2(S)-(2-benzoyl-phenylamino)-3-{4-[1,1-ditritio-2-(5-methyl-2-phenyl-oxazol-4-yl)-ethoxy]-phenyl}-propionic acid or 2,3-ditritio-2(S)-methoxy-3-(4-(2-(5-methyl-2-phenyl-oxazol-4-yl)-ethoxy]-benzo[b]thiophen-7-yl}-propionic” for “2(S)-(2-benzoyl-phenylamino)-3-{4-[1,1-ditritio-2-(5-methyl-2-phenyl-oxazol-4-yl)-ethoxy]-phenyl}-propionic”
# [5] = target: T1, PPARγ; experiment: PPARγ radioligand binding assay (SPA, GST-PPARγ-LBD fusion protein); conditions: SPA beads
# Source text: Full-length cDNA clones for human PPARα and mouse PPARγ were obtained by RT-PCR from human adipose and mouse liver cRNA, respectively, cloned into plasmid vectors and verified by DNA sequencing. (With respect to cloning of PPARα cDNA, see Sher, T. et al. “cDNA doning, chromosomel mapping and functional characterization of the human peroxisome proliferator activated receptor”, Biochemistry 32(21) 5598-5604 (1993); with respect to cloning of PPARγ2 cDNA, see Tontonoy P., et al. “mPPAR gamma 2: tissue-specific regulator of an adipocyte enhancer”, Genes Dev. 8(10) 1224-34 (1994).) Bacterial and mammalian expression vectors were constructed to produce glutathione-s-transferase (GST) and Gal4 DNA binding domain proteins fused to the ligand binding domains (LBD) of PPARγ (aa 174 to 476) and PPARα (aa 167 to 469). To accomplish this, the portions of the cloned sequences encoding the LBDs were amplified from the full-length clones by PCR and then subcloned into the plasmid vectors. Final clones were verified by DNA sequence analysis. […]
# PPARγ receptor binding was assayed in TKE50 (50 mM Tris-HCl, pH 8, 50 mM KCl, 2 mM EDTA, 0.1 mg/ml fatty acid-free BSA and 10 mM DTT). […] All binding assays were performed in 96 well plates and the amount of bound ligand measured on a Packard TopCount using OptiPlates (Packard). Nonspecific binding was determined in the presence of 10^−4 M unlabelled compound. […]
# [6] = target: T2, PPARα; experiment: Luciferase transcriptional reporter gene assay, BHK21 cells transfected with pFA-PPARα-LBD; assay type: cell-based; conditions: 24 hours incubation
# Experimental: as §5
# Baby hamster kidney cells (BHK21 ATCC CCL10) were grown in DMEM medium containing 10% FBS at 37° C. in a 95%02:5%CO2 atmosphere. Cells were seeded in 6 well plates at a density of 10^5 Cells/well and then batch-transfected with either the pPA-PPARγ-LBD or pFA-PPARα-LBD expression plasmids plus a reporter plasmid and an expression plasmid encoding the secretable form of alkaline phosphatase (SEAP) as a normalization control. […] Following incubation of the cells for 24 hours with substances, 50 ul of the supernatant was recovered and analyzed for SEAP activity (Roche Molecular Biochemicals). […] Luminescence for both SEAP and luciferase was measured in a Packard TopCount. Luciferase activity was normalized to the SEAP control and transcriptional activation in the presence of a test substance was expressed as fold-activation over cells incubated in the absence of the substance. EC50 values were calculated using the XLfit program (ID Business Solutions Ltd. UK).
Compound,pIC50 [1],pEC50 [2],pEC50 [3],pIC50 [4],pIC50 [5],pEC50 [6]
"CCOC(Cc1ccc(OCc2csc(-c3ccc(C(C)C)cc3)n2)c(C)c1)C(=O)O (racemic) [Example 5, [rac]-2-Ethoxy-3-{4-[2-(4-isopropyl-phenyl)-thiazol-4-ylmethoxy]-3-methyl-phenyl}-propionic acid]",7.02,6.41,6.40,6.88,–,–
"CCOC(Cc1ccc(OCCc2csc(-c3ccc(C(F)(F)F)cc3)n2)c(F)c1)C(=O)O (racemic) [Example 25, [rac]-2-Ethoxy-3-(3-fluoro-4-{2-[2-(4-trifluoromethyl-phenyl)-thiazol-4-yl]-ethoxy}-phenyl)-propionic acid]",6.27,6.29,6.94,6.43,–,–
"CCOC(Cc1ccc(OCCCc2csc(-c3ccc(C(C)C)cc3)n2)c(F)c1)C(=O)O (racemic) [Example 43, [rac]-2-Ethoxy-3-(3-fluoro-4-{3-[2-(4-isopropyl-phenyl)-thiazol-4-yl]-propoxy}-phenyl)-propionic acid]",7.28,6.27,5.67,7.30,–,–
"CCOC(Cc1ccc(OCCc2nc(-c3ccc(OC(F)(F)F)cc3)sc2C)c(C)c1)C(=O)O (racemic) [Example 60, [rac]-2-ethoxy-3-(3-methyl-4-{2-[5-methyl-2-(4-trifluoromethoxy-phenyl)-thiazol-4-yl]-ethoxy}-phenyl)-propionic acid]",7.38,6.39,6.13,7.43,–,–
CCOC(Cc1ccc(OCCc2nc(-c3cc(OC)cc(OC)c3)sc2C)c(OC)c1)C(=O)O (racemic) [Example 64],–,6.55,–,7.02,7.08,6.29
"CCOC(Cc1ccc(OCCCc2nc(-c3ccc(C(C)(C)C)cc3)sc2C)cc1C)C(=O)O (racemic) [Example 102, [rac]-3-(4-{3-[2-(4-tert-Butyl-phenyl)-5-methyl-thiazol-4-yl]-propoxy}-2-methyl-phenyl)-2-ethoxy-propionic acid]",7.70,7.38,6.67,7.82,–,–

# More lines, now with the values ahead:
pIC50 [1],pEC50 [2],pEC50 [3],pIC50 [4],pIC50 [5],pEC50 [6],Compound
6.34,6.22,7.11,6.96,–,–,"CCOC(Cc1ccc(OCc2csc(-c3ccc(Cl)cc3)n2)cc1C)C(=O)O (racemic) [Example 14, [rac]-3-{4-[2-(4-chloro-phenyl)-thiazol-4-ylmethoxy]-2-methyl-phenyl}-2-ethoxy-propionic acid]"
–,5.80,–,6.94,6.03,7.27,CCOC(Cc1ccc(OCc2csc(-c3ccc(Cl)cc3)n2)c2ccoc12)C(=O)O (racemic) [Example 95]
6.75,7.22,7.15,7.05,–,–,"CCO[C@@H](Cc1ccc(OCc2csc(-c3cccc(Cl)c3)n2)cc1C)C(=O)O [Example 19, (2S)-3-{4-[2-(3-Chloro-phenyl)-thiazol-4-ylmethoxy]-2-methyl-phenyl}-2-ethoxy-propionic acid]"
6.13,6.68,7.57,7.62,–,–,"CCO[C@@H](Cc1ccc(OCc2csc(-c3ccc(Cl)cc3)n2)cc1C)C(=O)O [Example 20, (2S)-3-{4-[2-(4-Chloro-phenyl)-thiazol-4-ylmethoxy]-2-methyl-phenyl}-2-ethoxy-propionic acid]"

# From patent US6809110B2 (Hoffmann-La Roche Inc., priority 2002, dated 2004)
